In patent publication US20060063938A1, “Compounds to treat hiv infection and aids” (priority 2001, published 2006):
Values joined by “and” are separate entries in the source; they are usually repeats but may differ in a detail not shown here. Identical values can stand only once. “Also recorded” adds a separate entry of the source. Like-named read-outs stand apart in the source and are kept apart here.

Tests used:
[1] = system: HIV-1; test: microbe, parasite or virus in culture; type: cell-based; conditions: for IC50: read-out: 50% Inhibitory Conc. (IC50)
[2] = target: HIV-1 integrase (Human immunodeficiency virus type 1 group M subtype B, UniProt P04585); test: In vitro HIV-1 integrase assay (3′-processing and strand transfer) with 21-mer U5 LTR oligonucleotide; type: biochemical
[3] = system: HIV-1; conditions: read-out: IC50 reported previously; Hazuda et al. 2000; cited from earlier work
[4] = system: replication competent HIV-1; test: Inhibition of replication competent HIV-1 in H9 cells, p24 antigen ELISA; type: cell-based; conditions: 25 μM B compound, 15 days
Description: FIG. 6. Determination of inhibition of replication competent HIV-1 by B compound. HIV-1 infection was carried out in the presence of 25 μM B compound, 100 nM AZT, or in the absence of any drugs. Uninfected H9 culture was used as a negative control. […] Each time point of each culture was evaluated in duplicate.
Inhibition of replication competent HIV-1 by B compound was evaluated at 25 μM concentration. 293T cells were transfected with pNL4-3, a plasmid that encodes full HIV-1 genome. Virus harvested from the transfected cells was used to infect H9 target cells. […] In addition, H9 infected cells were cultured in the presence of 100 nM AZT as a control.
H9 T-lymphoid cells (ATCC) were maintained in the presence of RPMI 1640 Medium (Cellgro), 20% fetal calf serum (HyClone Laboratories), penicillin (50 U/ml; Gibco) and streptomycin (50 μg/ml; Gibco), 2 μg/ml Polybrene (Sigma). […] After 4 hours of infection, H9 cells were washed, resuspended in 2 ml of cell culture medium containing an appropriate drug and maintained in 35-mm-diameter dish. Cultures were fed every 3 days by removing 1 ml of cell culture suspension and replacing with equivalent amount of fresh medium containing an appropriate drug.

[5] = system: 293T cells; test: Cell proliferation inhibition (XTT) cell toxicity assay; type: cell-based
Description: To ensure that inhibition of luciferase activity in the presence of the compounds was indeed due to inhibition of HIV-1 infection and not due to the toxicity of these compounds to the target cells, we performed a cell toxicity assay in the presence of the same concentrations of compounds that were used for IC50 determination (FIG. 5).
Cell proliferation inhibition assay. The effects of inhibitors on cell toxicity were determined by using Cell Proliferation Kit II (XTT) (Roche Molecular Biochemicals). Target cells (293T) were plated at a density of 1×10^3 per well of 96-well plate. Twenty-four hours later cells were treated with an inhibitor for 36 hours. After inhibitor was removed, cells were incubated for additional 48 hours and then were stained with 50 μL of the XTT labeling mix per well (Roche Molecular Biochemicals). Spectrophotometrical absorbance of the samples was measured 4 hours after addition of the labeling mix at wavelengths of 450 nm with a reference point at 700 nm in a 96-well plate reader.

[6] = 3′-processing step of integration reaction, read-out: IC50 3′-Processing
[7] = strand transfer step of integration reaction, read-out: IC50 Strand transfer
[8] = Human immunodeficiency virus 1, HEK-293T

SMILES | Luciferase Activity Relative to No Drug Control (Avg ± S.E.) [1] | IC50 [2, 6] [µM] | IC50 [2, 7] | other results
O=C(O)C(O)=CC(=O)c1cc(OCc2ccccc2)cc(OCc2ccccc2)c1 [Compound P10, reference compound] | 7% and 7 ± 2% | > 1000 | 1.03 ± 0.25 µM | IC50 [1]: 2.3 µM; effect on 3′-processing step ([2]; concentrations up to the millimolar range): unaffected; IC50 for the strand transfer reaction ([2]; strand transfer): in the micromolar range; IC50 [3]: 2.5 µM
O=C(O)C(O)=CC(=O)c1cccc(OCc2ccccc2)c1 [Compound H] | 14 ± 3% |  | 0.35 ± 0.13 µM | IC50 [1]: 0.6 µM; IC50 ([2]; 3′-processing step of integration reaction, listed as 18, read-out: IC50 3′-Processing): 65 µM and 100 µM
[N-]=[N+]=NCc1cccc(C(=O)C=C(O)C(=O)O)c1 [Compound B, 4-(3-azidomethyl-phenyl)-2-hydroxy-4-oxo-but-2-enoic acid] | 15 ± 7% | > 100 | 1.53 ± 0.27 µM | IC50 [1, 8]: 0.5 µM; HIV-1 replication (p24 antigen) in infected H9 culture [4]: no significant amounts of HIV-1 replication was detected; also recorded: strongly inhibited replication competent HIV-1
COc1ccc(Cn2nnnc2C(O)=CC(=O)c2c[nH]c3ccccc23)cc1 [Compound P23, reference compound] | 104 ± 25% | > 100 | 6.9 µM | 
O=C(O)C(O)=CC(=O)c1cccc(C(=O)c2ccccc2)c1 [Compound I] | 19 ± 2% | > 100 |  | IC50 ([2]; strand transfer step of integration reaction, listed as 19, read-out: IC50 Strand transfer): 2.7 µM and 2.1 µM
O=C(C=C(O)c1nnn[nH]1)c1c[nH]c2ccccc12 [Compound P4, reference compound] | 116 ± 27% | > 100 |  | IC50 ([2]; strand transfer step of integration reaction, listed as 6, read-out: IC50 Strand transfer): 1.9 µM and 2 µM
COc1ccc(Cn2nnnc2C(O)=CC(=O)c2c[nH]c3ccc(F)cc23)cc1 [Compound P22, reference compound] | 98 ± 28% |  |  | IC50 ([2]; 3′-processing step of integration reaction, listed as 11, read-out: IC50 3′-Processing): 8.1 µM and 5.5 µM; IC50 ([2]; strand transfer step of integration reaction, listed as 11, read-out: IC50 Strand transfer): 2.2 µM and 1.6 µM
[N-]=[N+]=NCc1ccc(C(=O)C=C(O)C(=O)O)cc1CN=[N+]=[N-] [Compound C] | 36 ± 7% | > 100 |  | IC50 [1]: 19 µM; IC50 ([2]; strand transfer step of integration reaction, listed as 4, read-out: IC50 Strand transfer): 0.26 µM and 0.15 µM
O=C(C=C(O)c1nnn[nH]1)c1c[nH]c2ccc(F)cc12 [Compound P31, reference compound] | 61 ± 17% |  |  | IC50 ([2]; 3′-processing step of integration reaction, listed as 14, read-out: IC50 3′-Processing): 82 µM; IC50 ([2]; strand transfer step of integration reaction, listed as 14, read-out: IC50 Strand transfer): 6.56 ± 0.81 µM
Cc1cc(C)cc(C(=O)C=C(O)C(=O)O)c1 [Compound E] | 99 ± 14% | > 100 |  | antiviral activity in single cycle assay [1]: did not show antiviral activity; also recorded: showed no antiviral activity; IC50 ([2]; strand transfer step of integration reaction, listed as 15, read-out: IC50 Strand transfer): 9 µM and 11 µM
COc1ccc(Cn2nnnc2C(O)=CC(=O)c2c[nH]c3ccc(Cl)cc23)cc1 [Compound P20, reference compound] | 133 ± 35% |  | 1.28 ± 0.38 µM | IC50 ([2]; 3′-processing step of integration reaction, listed as 10, read-out: IC50 3′-Processing): 7.2 µM and 7.5 µM
O=C(C=Cc1ccc(O)c(O)c1)Nc1cccc(C(=O)C=C(O)C(=O)O)c1 [Compound G] | 24 ± 8% | 9 | 4.7 µM | IC50 [1]: 2.2 µM
O=C(O)C(O)=CC(=O)c1ccc(Oc2ccccc2)cc1 [Compound F] | 261 ± 5% | > 100 |  | IC50 ([2]; strand transfer step of integration reaction, listed as 16, read-out: IC50 Strand transfer): 7.8 µM and 15 µM
O=C(C=C(O)c1nnn[nH]1)c1c[nH]c2ccc(F)cc12 [Compound P18, reference compound] | 59 ± 13% |  |  | IC50 ([2]; 3′-processing step of integration reaction, listed as 9, read-out: IC50 3′-Processing): 79 µM; IC50 ([2]; strand transfer step of integration reaction, listed as 9, read-out: IC50 Strand transfer): 1.8 µM
[N-]=[N+]=Nc1cccc(C(=O)C=C(O)C(=O)O)c1 [Compound D, 4-(3-azido-phenyl)-2-hydroxy-4-oxo-but-2-enoic acid] | 137 ± 12% | > 100 | 5.3 µM and 5.2 µM | concentration giving 50% inhibition of cell proliferation [5]: approximately 19 μM
[N-]=[N+]=NCc1cc(CN=[N+]=[N-])cc(C(=O)/C=C(\O)C(=O)O)c1 [Compound A, 4-(3,5-bis-azidomethyl-phenyl)-2-hydroxy-4-oxo-but-2-enoic acid] | 5 ± 6% | > 100 | 2 µM and 2.8 µM | IC50 [1, 8]: 1.6 µM
